Source: ChEMBL document CHEMBL3044866, “A facile and single pot strategy for the synthesis of novel naphthyridine derivatives under microwave irradiation conditions using ZnCl2 as catalyst, evaluation of AChE inhibitory activity, and molecular modeling studies” (Med Chem Res, 2012)

Assays:
[1] = Cytotoxicity against Homo sapiens (human) THLE2 cells assessed as cell death at 10 uM after 48 hr by MTT assay; assay type: cell-based; details: thle-2, 48 h
Acetylcholinesterase = Acetylcholinesterase (Homo sapiens, UniProt P22303); test: Inhibition of AChE (unknown origin) after 10 min by Ellmans method
Chain of Acetylcholinesterase (P22303 whole entry): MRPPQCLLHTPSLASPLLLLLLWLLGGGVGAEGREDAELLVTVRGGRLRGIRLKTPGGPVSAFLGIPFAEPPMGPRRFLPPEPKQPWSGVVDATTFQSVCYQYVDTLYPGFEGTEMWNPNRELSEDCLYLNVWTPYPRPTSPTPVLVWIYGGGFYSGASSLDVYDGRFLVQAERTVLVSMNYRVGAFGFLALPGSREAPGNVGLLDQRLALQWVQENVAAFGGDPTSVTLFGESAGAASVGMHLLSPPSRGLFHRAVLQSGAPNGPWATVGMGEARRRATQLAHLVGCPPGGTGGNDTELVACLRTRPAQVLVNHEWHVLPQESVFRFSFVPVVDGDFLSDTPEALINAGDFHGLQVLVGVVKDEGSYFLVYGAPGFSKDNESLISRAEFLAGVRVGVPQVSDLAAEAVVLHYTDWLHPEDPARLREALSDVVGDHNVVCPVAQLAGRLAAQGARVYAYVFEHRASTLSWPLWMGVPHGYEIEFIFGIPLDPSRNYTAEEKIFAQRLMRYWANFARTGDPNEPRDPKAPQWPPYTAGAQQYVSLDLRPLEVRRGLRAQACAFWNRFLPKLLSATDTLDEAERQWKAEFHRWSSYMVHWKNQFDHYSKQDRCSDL

in vitro [2] = details: human, THLE2 cells
Description: Cytotoxicity against Homo sapiens (human) THLE2 cells assessed as viable cells at 10 uM after 48 hr by MTT assay

in vitro [3] = details: human, THLE2 cells; remark: listed apart in the source
Description: Cytotoxicity against Homo sapiens (human) THLE2 cells assessed as viable cells at 1 uM after 48 hr by MTT assay

in vitro [4] = details: human, THLE2 cells; remark: listed apart in the source
Description: Cytotoxicity against Homo sapiens (human) THLE2 cells assessed as viable cells at 0.5 uM after 48 hr by MTT assay

Compound	IC50 (Acetylcholinesterase)	other results
Nc1cc(-c2ccc(Cl)cc2)nc2nc(-c3ccccc3)cc(C(F)(F)F)c12	0.52 µM	Activity [1]: 16%; viability at 48 h, 10 µM (in vitro [2]): 84.2%; viability at 48 h, 1 µM (in vitro [3]): 98.1%; viability at 48 h, 0.5 µM (in vitro [4]): 97.1%
Nc1c2c(nc3nc(-c4ccccc4)cc(C(F)(F)F)c13)CCC2	8.05 µM	–
CC1CCc2c(nc3nc(-c4ccccc4)cc(C(F)(F)F)c3c2N)C1 (centres undefined)	3.25 µM	–
CC1CCc2nc3nc(-c4ccccc4)cc(C(F)(F)F)c3c(N)c2C1 (centres undefined)	0.51 µM	–
Nc1c2c(nc3nc(-c4ccccc4)cc(C(F)(F)F)c13)CCCCC2	10.1 µM	–
COc1ccc(-c2cc(N)c3c(C(F)(F)F)cc(-c4ccccc4)nc3n2)cc1	8.24 µM	–
Nc1cc(-c2cccs2)nc2nc(-c3ccccc3)cc(C(F)(F)F)c12	10.4 µM	–
Nc1c2c(nc3nc(-c4ccccc4)cc(C(F)(F)F)c13)CCCCCC2	7.69 µM	–
Nc1cc(-c2ccccc2)nc2nc(-c3ccccc3)cc(C(F)(F)F)c12	7.1 µM	–
Nc1c2c(nc3nc(-c4ccccc4)cc(C(F)(F)F)c13)CCCC2	0.35 µM	–
CC(C)Cc1cc(N)c2c(C(F)(F)F)cc(-c3ccccc3)nc2n1	19.1 µM	–
Nc1c2c(nc3nc(-c4ccccc4)cc(C(F)(F)F)c13)-c1ccccc1CC2	23.1 µM	–
Nc1cc(-c2ccc(F)cc2)nc2nc(-c3ccccc3)cc(C(F)(F)F)c12	6.58 µM	–
Nc1cc(-c2cccc(F)c2)nc2nc(-c3ccccc3)cc(C(F)(F)F)c12	7.03 µM	–
CC1Cc2nc3nc(-c4ccccc4)cc(C(F)(F)F)c3c(N)c2C1 (centres undefined)	9.37 µM	–
Nc1cc(-c2ccccc2Br)nc2nc(-c3ccccc3)cc(C(F)(F)F)c12	0.89 µM	viability at 48 h, 10 µM (in vitro [2]): 99.9%; viability at 48 h, 1 µM (in vitro [3]): 95.9%; viability at 48 h, 0.5 µM (in vitro [4]): 98.7%
Nc1c2c(nc3nc(-c4ccccc4)cc(C(F)(F)F)c13)-c1ccccc1C2	17.6 µM	–
